Assay results from patent publication US5476856A, “Treatment of PAF and histamine-mediated diseases with 8-chloro-11-[1-[(5-methyl-3-pyridyl)methyl]-4-piperidyliden]-6,11-dihydr o-5H-benzo[5,6]cyclohepta[1,2-b]pyridine” (J. Uriach & Cia. S.A., priority 1992, dated 1995).
pIC50: −log10 of the molar value. Counter-ions that a name gives are not always drawn.

Legend:
[1] = test system: histamine-induced contraction of guinea-pig ileum (AntiH1); assay: Antihistamine activity in guinea-pig ileum (Test 4, AntiH1 act.); assay type: cell-based, Dunkin-Hartley guinea pigs; conditions: for pIC50: Cavia porcellus, histamine 5×10^-7 M, 5 min preincubation, read-out: Antihistaminic activity in vitro, Test 4 AntiH1 act. ileum IC50; for pIC50 / antihistamine activity compared with compounds 11 and 12-14, in words / antihistamine potency in words: guinea-pig ileum
Protocol: This test was performed according to the method of Magnus. Male Dunkin-Hartley guinea pigs (b.w. 300-350 g), fasted overnight, were used. Animals were stunned, the abdomen was opened and 4 cm long ileum sections were cut. The sections were placed in a Petri dish containing Tyrode's solution at 37° C. and continuously bubbled with carbogen. The ileum fragments were washed with Tyrode's solution and then were transferred to an organ bath. Ileum contraction was measured using an isometric transducer. The initial load was 1 g. After a stabilization period of 20 min in which the organ is immersed in Tyrode's solution at 37° C. continuously bubbled with carbogen, non cumulative stimuli with submaximal doses of histamine (5×10^-7 M) were given. The contraction in absence or presence (5 min. preincubation time) of the test compounds was recorded.

[2] = test system: mortality induced by PAF; assay: Mortality induced by PAF in mice (p.o.) (Test 3); assay type: in vivo, Swiss mice; conditions: for ED50: Mus musculus, 2 h, po, 1 h before 100 mcg/kg PAF-C18 and 1 mg/kg propanolol, 50% inhibition of mortality, read-out: PAF antagonism in vivo, Test 3 Mort. ID50
Protocol: This test was performed according to the procedure described by Young et al. (Prostaglandins, 1985, 30, 545-551). Groups of 10 Swiss mice weighing from 22 to 26 g were used. 100 mcg/kg of PAF-C18 and 1 mg/kg of propanolol were administered through a lateral tail vein 1 h after the oral administration of the compounds to be tested (0.2 mL/10 g). Animals were examined 2 h after the injection of PAF. The percentage of the inhibition of the mortality induced by PAF was determined for all test compounds in comparison with the control group. The results are expressed as ID50 values, that is to say, the amount of compound by weight of animal (dose) needed to inhibit the mortality induced by PAF in a 50%.

[3] = test system: hypotension induced by PAF; assay: Inhibition of the hypotensive effect induced by PAF in normotense rats (Test 2); design: species or system Sprage Dawley rats; conditions: Rattus norvegicus; iv, 3 min before PAF 0.5 mcg/Kg i.v.; 50% inhibition of hypotension; read-out: PAF antagonism in vivo, Test 2 Art. p. ID50
Protocol: Male Sprage Dawley rats (b.w. 180-220 g) anesthetized with sodium pentobarbital (50 mg/Kg, i.p. 1 mL/100 g) are used. In order to measure the average arterial pressure, a polyethylene catheter is introduced into the carotid artery. The arterial pressure is recorded with the help of a transducer connected with a R611 Beckman polygraph. The test compounds are administered through the femoral vein 3 min. before the injection of PAF (0.5 mcg/Kg, i.v.).

[4] = test system: platelet aggregation induced by PAF; assay: Inhibition of platelet aggregation induced by PAF (Test 1); assay type: cell-based, New Zealand albino rabbits; conditions: Oryctolagus cuniculus; rabbit platelet rich plasma; PAF (C18) 16 nM final; read-out: PAF antagonism in vitro, Test 1 Plat. aggreg. IC50
Protocol: The platelet rich plasma (PRP) is prepared by blood centrifugation at 250×g for 10 min. at 4° C. and it is diluted with platelet poor plasma (PPP) obtained by additional centrifugation at 3000×g for 10 min. The amount of platelets is adjusted to […].

Row | Structure (SMILES) | pIC50 [1] | ED50 [2] [mg/kg] | ED50 [3] [mg/kg] | pIC50 [4] | antihistamine activity compared with compounds 11 and 12-14, in words [1] | antihistamine potency in words [1] | antihistaminic potency relative to the 2-methyl derivative 3 ([1]; more potent than compound 3) [fold] | antihistaminic potency relative to compound 11 ([1]; more potent than compound 11) [fold] | antihistaminic potency relative to the 6-methyl and 4-methyl derivatives 2 and 5 ([1]; more potent than compounds 2 and 5) [fold] | activity in the PAF-induced mortality test, in words ([2]; oral administration) | activity in the PAF-induced mortality test relative to all the other tested compounds ([2]; oral, superior to all the other tested compounds) [fold]
1 | CC(=O)N1CCC(=C2c3ccc(Cl)cc3CCc3cccnc32)CC1 [Compound 12, reference compound] | 7.00 | 31 | 2 | 6.08 |  |  |  |  |  |  | 
2 | Cc1cncc(CN2CCC(=C3c4ccc(Cl)cc4CCc4cccnc43)CC2)c1 [Compound 4, 8-chloro-11-[1-[(5-methyl-3-pyridyl)methyl]-4-piperidyliden]-6,11-dihydro-5H-benzo[5,6]cyclohepta[1,2-b]pyridine] | 8.37 | 1.9 | 0.44 | 5.49 | stronger activity than the 4-pyridine 11 and the compounds 12-14 | potent antihistamines | ~100 | 20 | 10 | strong activity | ≥ 10
3 | Clc1ccc2c(c1)CCc1cccnc1C2=C1CCN(Cc2ccncc2)CC1 [Compound 11, reference compound] | 7.03 | 30 | > 5 | 5.74 |  |  |  |  |  |  | 
4 | Clc1ccc2c(c1)CCc1cccnc1C2=C1CCN(Cc2cccnc2Cl)CC1 [Compound 6, 8-chloro-11-(1-[(2-chloro-3-pyridyl)methyl]-4-piperidyliden)-6,11-dihydro-5H -benzo[5,6]cyclohepta[1,2-b]pyridine] | 6.46 | > 30 | > 5 | < 4.00 |  |  |  |  |  |  | 
5 | O=C(c1cc[n+]([O-])cc1)N1CCC(=C2c3ccc(Cl)cc3CCc3cccnc32)CC1 [Compound 13, reference compound] | 6.68 | > 30 | 1.9 | 6.66 |  |  |  |  |  |  | 
6 | CCOC(=O)N1CCC(=C2c3ccc(Cl)cc3CCc3cccnc32)CC1 [Compound 14, reference compound] |  | > 30 | > 5 |  |  |  |  |  |  |  | 
7 | Cc1ccncc1CN1CCC(=C2c3ccc(Cl)cc3CCc3cccnc32)CC1 [Compound 5, 8-chloro-11-(1-[(4-methyl-3-pyridyl)methyl]-4-piperidyliden)-6,11-dihydro-5H -benzo[5.6]cyclohepta[1,2]pyridine] | 7.46 | 10 to 30 | > 5 | 4.82 | stronger activity than the 4-pyridine 11 and the compounds 12-14 | potent antihistamines |  |  |  |  | 
8 | COc1ccc(CN2CCC(=C3c4ccc(Cl)cc4CCc4cccnc43)CC2)cn1 [Compound 9, 8-chloro-11-(1-[(6-methoxy-3-pyridyl)methyl]-4-piperidyliden)-6,11-dihydro-5H -benzo[5,6]cyclohepta[1,2-b]pyridine] | 6.42 |  |  | 4.43 |  |  |  |  |  |  | 
9 | Clc1ccc2c(c1)CCc1cccnc1C2=C1CCN(Cc2cccnc2)CC1 [Compound 1, 8-chloro-11-(1-(3-pyridylmethyl)-4-piperidyliden)-6,11-dihydro-5H-benzo[5,6]cyclohepta[1,2-b]pyridine] | 6.80 | 30 | > 5 | 5.40 |  |  |  |  |  |  | 
10 | Clc1ccc2c(c1)CCc1cccnc1C2=C1CCN(Cc2cncc(Br)c2)CC1 [Compound 8, 8-chloro-11-(1-[(3-bromo-5-pyridyl)methyl]-4-piperidyliden)-6,11-dihydro-5H -benzo[5,6]cyclohepta[1,2-b]pyridine, trihydrochloride] | 6.55 | < 30 | > 5 | 6.14 |  |  |  |  |  |  | 
11 | Cc1ccc(CN2CCC(=C3c4ccc(Cl)cc4CCc4cccnc43)CC2)cn1 [Compound 2, 8-chloro-11-(1-[(6-methyl-3-pyridyl)metyl]-4-piperidyliden)-6,11-dihydro-5H-benzo [5,6]cyclohepta[1,2-]pyridine] | 7.43 | 30 | > 5 | 5.05 | stronger activity than the 4-pyridine 11 and the compounds 12-14 | potent antihistamines |  |  |  |  | 
12 | Clc1ccc2c(c1)CCc1cccnc1C2=C1CCN(Cc2ccc(Cl)nc2)CC1 [Compound 7, 8-chloro-11-(1-[(6-chloro-3-pyridyl)methyl]-4-piperidyliden)-6,11-dihydro-5H -benzo[5,6]cyclohepta[1,2-b]pyridine] |  | 20 to 30 | > 5 | < 4.00 |  |  |  |  |  |  | 
13 | Cc1ncccc1CN1CCC(=C2c3ccc(Cl)cc3CCc3cccnc32)CC1 [Compound 3, 8-chloro-11-(1-[(2-methyl-3-pyridyl)methyl]-4-piperidyliden)-6,11-dihydro-5H-benzo [5,6]cyclohepta[1,2-b]pyridine] | 6.57 | > 30 | > 5 | 4.89 |  |  |  |  |  |  | 
